Results published in PubChem BioAssay AID1963423 (Molecular Pharmacology Branch, DTP, NCI, 2024).

System: 439559-082-T-J2-PDC complex spheroid growth
Test: Anticancer human tumor 439559-082-T-J2-PDC patient-derived colon adenocarcinoma cell line growth inhibition [Asc]
Conditions: for IC50: curve of first compound; for viability, T/C: stronger effect = lower value
How it was run: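 Complex spheroids combining tumor cells with HUVEC endothelial cells and human MSCs, at 37 degrees C, 5% CO2; agents tested alone or combined, half-log dilutions from at or near clinical Cmax, or 10 microM if Cmax unknown.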
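Note: spheroids exposed to agents for 7 days starting day 3 after seeding.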
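Throughout, for viability, T/C: percent of DMSO vehicle control viability with 100% = vehicle.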

Compound: CCN1CCN(Cc2ccc(Nc3ncc(F)c(-c4cc(F)c5nc(C)n(C(C)C)c5c4)n3)nc2)CC1 + CNC(C)C(=O)NC1CN(S(=O)(=O)c2cccc(S(=O)(=O)N3CCC4CCC(C(=O)NC(c5ccccc5)c5ccccc5)N4C(=O)C(NC(=O)C(C)NC)C3)c2)CCC2CCC(C(=O)NC(c3ccccc3)c3ccccc3)N2C1=O
- IC50 (second compound 0.00316 µM): > 1000 nM
- IC50 (second compound 0.01 µM): > 1000 nM
- IC50 (second compound 0.0316 µM): > 1000 nM
- IC50 (second compound 0.1 µM): > 1000 nM
- IC50 (second compound 0.316 µM): > 1000 nM
- IC50 (second compound 1 µM): > 1000 nM
- viability, T/C (second compound 0.00316 µM, first compound 0.00316 µM): 99.5%
- viability, T/C (second compound 0.00316 µM, first compound 0.01 µM): 92.6%
- viability, T/C (second compound 0.00316 µM, first compound 0.0316 µM): 91%
- viability, T/C (second compound 0.00316 µM, first compound 0.1 µM): 94.1%
- viability, T/C (second compound 0.00316 µM, first compound 0.316 µM): 85.8%
- viability, T/C (second compound 0.00316 µM, first compound 1 µM): 66.9%
- viability, T/C (second compound 0.01 µM, first compound 0.00316 µM): 107%
- viability, T/C (second compound 0.01 µM, first compound 0.01 µM): 101%
- viability, T/C (second compound 0.01 µM, first compound 0.0316 µM): 87.3%
- viability, T/C (second compound 0.01 µM, first compound 0.1 µM): 95.4%
- viability, T/C (second compound 0.01 µM, first compound 0.316 µM): 88%
- viability, T/C (second compound 0.01 µM, first compound 1 µM): 73.1%
- viability, T/C (second compound 0.0316 µM, first compound 0.00316 µM): 95.8%
- viability, T/C (second compound 0.0316 µM, first compound 0.01 µM): 111%
- viability, T/C (second compound 0.0316 µM, first compound 0.0316 µM): 89.6%
- viability, T/C (second compound 0.0316 µM, first compound 0.1 µM): 96.8%
- viability, T/C (second compound 0.0316 µM, first compound 0.316 µM): 94.5%
- viability, T/C (second compound 0.0316 µM, first compound 1 µM): 78.5%
- viability, T/C (second compound 0.1 µM, first compound 0.00316 µM): 103%
- viability, T/C (second compound 0.1 µM, first compound 0.01 µM): 87.9%
- viability, T/C (second compound 0.1 µM, first compound 0.0316 µM): 99%
- viability, T/C (second compound 0.1 µM, first compound 0.1 µM): 94.6%
- viability, T/C (second compound 0.1 µM, first compound 0.316 µM): 95.5%
- viability, T/C (second compound 0.1 µM, first compound 1 µM): 64.2%
- viability, T/C (second compound 0.316 µM, first compound 0.00316 µM): 91.6%
- viability, T/C (second compound 0.316 µM, first compound 0.01 µM): 84.2%
- viability, T/C (second compound 0.316 µM, first compound 0.0316 µM): 86.8%
- viability, T/C (second compound 0.316 µM, first compound 0.1 µM): 75.5%
- viability, T/C (second compound 0.316 µM, first compound 0.316 µM): 82%
- viability, T/C (second compound 0.316 µM, first compound 1 µM): 65.5%
- viability, T/C (second compound 1 µM, first compound 0.00316 µM): 88.9%
- viability, T/C (second compound 1 µM, first compound 0.01 µM): 77.3%
- viability, T/C (second compound 1 µM, first compound 0.0316 µM): 69.4%
- viability, T/C (second compound 1 µM, first compound 0.1 µM): 69.2%
- viability, T/C (second compound 1 µM, first compound 0.316 µM): 62.1%
- viability, T/C (second compound 1 µM, first compound 1 µM): 48.9%
